Measured values as given in patent US8859653B2, “Rubber-steel cord composite” (Bridgestone Corporation, priority 2009, dated 2014).

Experiment: octanol/water partition coefficient (log P) by high performance liquid chromatography according to JIS Z 7260-117 (2006)
Format: physicochemical
Text: The combination which is the best mode described above can be confirmed from a numerical value of an octanol/water partition coefficient (log Pow, hereinafter abbreviated as “log P”) which is one of simple measures for evaluating a condensation property of chemicals. In the present invention, the smaller the value of log P is, the better the balance between the vulcanization speed, securing of the adhesion performance and the accumulativeness in human bodies is.
In the present invention (including examples and the like described later), the octanol/water partition coefficient (log P) described above can be measured by a high performance liquid chromatography according to JIS Z 7260-117 (2006), and it is defined by the following equation: log P=log(┌Co┘/┌Cw┘)
Co: concentration of a test substance in a 1-octanol layer
Cw: concentration of a test substance in an aqueous layer
Also, the octanol/water partition coefficients (log P) of the respective vulcanization accelerators obtained (production examples 1 to 6) were measured by a high performance liquid chromatography according to JIS Z 7260-117 (2006). A high performance liquid chromatography manufactured by Shimadzu Corporation was used.

| SMILES | octanol/water partition coefficient (log P) |
| --- | --- |
| CC(C)N(Sc1nc2ccccc2s1)C(C)(C)C [N-i-propyl-N-t-butylbenzothiazole-2-sulpheneamide] | 5.1 |
| CCN(Sc1nc2ccccc2s1)C(C)(C)C [N-ethyl-N-t-butylbenzothiazole-2-sulpheneamide] | 4.9 |
| CN(Sc1nc2ccccc2s1)C(C)(C)C [N-methyl-N-t-butylbenzothiazole-2-sulpheneamide] | 4.5 |

Further lines, results first:

| octanol/water partition coefficient (log P) | SMILES |
| --- | --- |
| 5.3 | CCCN(Sc1nc2ccccc2s1)C(C)(C)C [N-n-propyl-N-t-butylbenzothiazole-2-sulpheneamide] |
| 5.8 | CCCCN(Sc1nc2ccccc2s1)C(C)(C)C [N-n-butyl-N-t-butylbenzothiazole-2-sulpheneamide] |
